Values joined by “and” are separate entries in the source; they are usually repeats but may differ in a detail not shown here. Equal entries are not always repeated. Where a SMILES comes first, the peptide text is derived from it. [ ]: non-standard residue; d: D form. The star is where a group is joined. dPhe(3,4-Cl2) = N[C@H](Cc1ccc(Cl)c(Cl)c1)C(=O)O; d2Nal = N[C@H](Cc1ccc2ccccc2c1)C(=O)O; NH(thiazol-2-yl) = c1csc(N*)n1; d2Thi = N[C@H](Cc1cccs1)C(=O)O; NH(4-picolyl) = c1cc(CN*)ccn1; N(CH2CH2)2NH = C1CN(*)CCN1; dNle = CCCC[C@@H](N)C(=O)O; Morpholide = C1CN(*)CCO1; X2 = OC1CCN(*)CC1; NEt2 = CCN(CC)*; NHcPr = C1CC1N*; NHPr = CCCN*
Tests used:
conscious male ICR mice = assay: Mouse acetic acid writhing test (WT); format: in vivo; conditions: for WT-ED50: i.v., 5 minutes before acetic acid i.p., writhes over 15 minutes; for % Antinociception 1 hr / % Antinociception 2 hr / % Antinociception 3 hr: submaximal effective dose i.v., percentage of the activity found at -5 min; for % Antinociception 1 hr: 60 min pretreatment; for % Antinociception 2 hr: 120 min pretreatment; for % Antinociception 3 hr: 180 min pretreatment
Description: Selected peptides that are identified in Tables A-G have been further specifically subjected to in vivo testing for determination of duration of action of their opioid properties, and the results are reported in Table H hereinafter. The peptide numbers correspond to those in the earlier tables and the figures with regard to μ/K ratio are simply carried over for reference purposes. The in vivo testing is carried out using a mouse writhing test (WT) that is well-suited for determining the length of duration of antinociceptive biological activity. This test is described in detail in an article by G. A. Bentley et al., Br. J. Phamac., 73:325-332, 1981, and it employs conscious male ICR mice which are purchased from Harlan and which weigh between 20 and 30 grams. The mice are fasted for 12 to 16 hours prior to beginning the test. The nociceptive behavior, i.e. writhing, to be monitored is induced by the intraperitoneal (i.p.) administration of dilute acetic acid. 10 milliliters of 0.6% aqueous acetic acid is used per kg of body weight. Writhing is scored during the 15 minutes following acetic acid administration. In a first step, compounds are tested at 3 to 4 increasing doses, given by intravenous route, and at one unique pretreatment time (-5 minutes before acetic acid injection). […] In a second step, this submaximal effective dose for each specific peptide is administered at various pretreatment times (i.e. -5 minutes, -60 minutes, -120 minutes and -180 minutes) prior to the administration of the acetic acid in order to determine the duration of action. Throughout the test, a control group of mice are used which are administered only the vehicle without the candidate peptide. The number of writhes are counted over a 15-minute period, starting from the time of acetic acid injection, and bioactivity, i.e. antinociception, is expressed as a percentage, and is calculated as follows:
100×(writhes in control group-writhes in treated group)/writhes in
Values higher than 100% indicate greater antinociception than at the beginning of the experiment. It is felt that the opioid peptide should be effective to reduce writhing by at least about 25% at a time of 1 hour to be considered to have long duration of in vivo action.
In addition to using this test to determine duration of antinociceptive activity, it is also used to measure the in vivo biopotency (short term) of the peptide. This value is given in the table under the heading WT-ED50 in milligrams per kg of body weight. The value is a measure of the dosage necessary to reduce the number of writhes in the mouse being tested by 50% (as compared to a control mouse) over a period of 15 minutes.

mouse = conditions: for TF-ED50: i.v., 52° C. water, central effects; for BPI (Brain Penetration Index): mouse, in vivo, iv
[1] = biological target: T1, cloned human mu opioid (hMOR) receptor (Homo sapiens, UniProt P35372); assay: Competition binding at cloned hMOR, displacement of 3H-DAMGO; conditions: hMOR stably expressed in HN.9.10 cells, read-out: Ki MOR
T1 construct: expressed in transfected cells; host or cells: HN9.10 (mouse hippocampal neuroblastoma), stably transfected

[2] = biological target: T2, cloned human kappa (hKOR) receptor (Homo sapiens, UniProt P41145); assay: biochemical; format: binding; conditions: for μ/κ Ratio (binding affinity for KOR versus MOR): Ki MOR / Ki KOR; for Ki: read-out: Ki KOR
T2 construct: expressed in transfected cells; host or cells: HN9.10 (mouse hippocampal neuroblastoma), stably transfected
T2 sequence (P41145 whole entry): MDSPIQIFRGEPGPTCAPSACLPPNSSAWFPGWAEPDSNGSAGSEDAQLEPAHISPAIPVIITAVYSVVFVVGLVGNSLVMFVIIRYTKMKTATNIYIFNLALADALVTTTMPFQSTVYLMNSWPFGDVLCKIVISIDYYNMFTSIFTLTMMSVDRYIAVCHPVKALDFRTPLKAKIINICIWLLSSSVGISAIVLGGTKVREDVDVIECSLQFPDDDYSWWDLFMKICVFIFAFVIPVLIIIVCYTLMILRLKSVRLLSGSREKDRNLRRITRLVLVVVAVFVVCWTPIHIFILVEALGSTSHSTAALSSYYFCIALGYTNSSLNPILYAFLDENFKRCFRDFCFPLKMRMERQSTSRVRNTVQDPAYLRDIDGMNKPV

T1 sequence (P35372 whole entry): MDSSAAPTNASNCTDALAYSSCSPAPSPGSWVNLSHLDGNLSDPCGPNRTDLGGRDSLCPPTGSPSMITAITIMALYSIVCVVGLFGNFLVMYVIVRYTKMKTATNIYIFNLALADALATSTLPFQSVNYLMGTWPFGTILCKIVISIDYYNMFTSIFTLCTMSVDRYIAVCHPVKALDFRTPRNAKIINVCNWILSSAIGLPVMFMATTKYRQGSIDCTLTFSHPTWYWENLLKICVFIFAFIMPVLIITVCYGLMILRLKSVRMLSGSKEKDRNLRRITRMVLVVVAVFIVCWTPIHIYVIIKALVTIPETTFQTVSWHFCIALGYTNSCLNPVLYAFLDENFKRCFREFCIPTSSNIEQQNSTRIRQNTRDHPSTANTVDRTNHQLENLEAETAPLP

In the case of CCCC[C@@H](NC(=O)[C@@H](Cc1ccccc1)NC(=O)[C@H](N)Cc1ccccc1)C(=O)N[C@H](CCCNC(=N)N)C(=O)NCC [Peptide 1, H-D-Phe-D-Phe-D-Nle-D-Arg-NHEt] (H-[dF][dF][dNle][dR]-NHEt), the WT-ED50 (conscious male ICR mice) is reported as 0.09 mg/kg, the WT-ED50 (conscious male ICR mice; listed as Peptide No. 1) is reported as “about 0.09 mg/kg” and the “antinociception after 3 hours” value (conscious male ICR mice; mouse acetic acid writhing assay, Example 1) is reported as “over 50%”. The “duration of antinociceptive bioactivity (duration of action)” value (conscious male ICR mice; result in words) was “very long duration of action”, the “% Antinociception 1 hr” value (conscious male ICR mice) was 83.9% and the “% Antinociception 2 hr” value (conscious male ICR mice) was 75.5%. The “% Antinociception 3 hr” value (conscious male ICR mice) was 61.3%, the TF-ED50 (mouse) was 9.7 mg/kg and the “BPI (Brain Penetration Index)” value (mouse) was 108. The Ki [1] was 1890 ± 990 nM, the “μ/κ Ratio (binding affinity for KOR versus MOR)” value (from here on “μ/κ Ratio”) [2] was 38,000 and the “μ/κ Ratio” value ([2]; listed as Peptide No. 1) was “about 38,000”. For the same compound, the Ki [2] was roughly 0.05 nM.

CCCC[C@@H](NC(=O)[C@@H](Cc1ccccc1)NC(=O)[C@H](N)Cc1ccccc1)C(=O)N[C@H](CCCNC(=N)N)C(=O)N1CCOCC1 [Peptide 6, H-D-Phe-D-Phe-D-Nle-D-Arg-Mor] (H-[dF][dF][dNle][dR]-Morpholide) was tested, and the WT-ED50 (conscious male ICR mice) was 0.014 mg/kg, the “% Antinociception 1 hr” value (conscious male ICR mice) was 105.7% and the “% Antinociception 2 hr” value (conscious male ICR mice) was 52.7%. The TF-ED50 (mouse) was 6.4 mg/kg, the “BPI (Brain Penetration Index)” value (mouse) was 457 and the Ki [1] was 2510 nM. The “μ/κ Ratio” value [2] was 42,000 and the Ki [2] was 0.06 nM.

For CCCC[C@@H](NC(=O)[C@@H](Cc1ccccc1)NC(=O)[C@H](N)Cc1ccccc1)C(=O)N[C@H](CCCNC(=N)N)C(=O)N(CC)CC [Peptide 7, H-D-Phe-D-Phe-D-Nle-D-Arg-N(Et2)] (H-[dF][dF][dNle][dR]-NEt2), the WT-ED50 (conscious male ICR mice) was 0.02 mg/kg and 0.020 mg/kg, the “% Antinociception 1 hr” value (conscious male ICR mice) was 67.5% and the “% Antinociception 2 hr” value (conscious male ICR mice) was 36.8%. The TF-ED50 (mouse) was 3.1 mg/kg, the “BPI (Brain Penetration Index)” value (mouse) was 155 and the Ki [1] was 1900 nM. For the same compound, the “μ/κ Ratio” value [2] was 17,000 and the Ki [2] was 0.11 nM.

With CCCC[C@@H](NC(=O)[C@@H](Cc1ccccc1)NC(=O)[C@H](N)Cc1ccccc1)C(=O)N[C@H](CCCNC(=N)N)C(=O)NCc1ccncc1 [Peptide 8, H-D-Phe-D-Phe-D-Nle-D-Arg-NH(4-Pic)] (H-[dF][dF][dNle][dR]-{NH(4-picolyl)}) the WT-ED50 (conscious male ICR mice) was 0.01 mg/kg, the “% Antinociception 1 hr” value (conscious male ICR mice) was 66.9% and the “% Antinociception 2 hr” value (conscious male ICR mice) was 45.1%. The TF-ED50 (mouse) was 9.84 mg/kg, the “BPI (Brain Penetration Index)” value (mouse) was 984 and the Ki [1] was 3640 nM. The “μ/κ Ratio” value [2] was 26,000 and the Ki [2] was 0.14 nM.

With CCCC[C@@H](NC(=O)[C@@H](Cc1ccccc1)NC(=O)[C@H](N)Cc1ccccc1)C(=O)N[C@H](CCCNC(=N)N)C(=O)NCCC [Peptide 3, H-D-Phe-D-Phe-D-Nle-D-Arg-NHPr] (H-[dF][dF][dNle][dR]-NHPr) the WT-ED50 (conscious male ICR mice) was 0.078 mg/kg, the “% Antinociception 1 hr” value (conscious male ICR mice) was 29% and the “% Antinociception 2 hr” value (conscious male ICR mice) was 30.7%. The TF-ED50 (mouse) was 13.82 mg/kg, the “BPI (Brain Penetration Index)” value (mouse) was 177 and the Ki [1] was 1640 nM. The “μ/κ Ratio” value [2] was 18,000 and the Ki [2] was 0.09 nM.

With CCCC[C@@H](NC(=O)[C@@H](Cc1ccccc1)NC(=O)[C@H](N)Cc1ccccc1)C(=O)N[C@H](CCCNC(=N)N)C(=O)N1CCNCC1 [Peptide 15, H-D-Phe-D-Phe-D-Nle-D-Arg-Ppz] (H-[dF][dF][dNle][dR]-{N(CH2CH2)2NH}) the WT-ED50 (conscious male ICR mice) was 0.017 mg/kg, the Ki [1] was 9100 nM and the “μ/κ Ratio” value [2] was 57,000. It also gave a Ki [2] of 0.16 nM.

CCCC[C@@H](NC(=O)[C@@H](Cc1ccccc1)NC(=O)[C@H](N)Cc1ccccc1)C(=O)N[C@H](CCCNC(=N)N)C(=O)Nc1nccs1 [Peptide 13, H-D-Phe-D-Phe-D-Nle-D-Arg-NH(2-Tzl)] (H-[dF][dF][dNle][dR]-{NH(thiazol-2-yl)}) was tested, and the WT-ED50 (conscious male ICR mice) was 0.44 mg/kg, the “% Antinociception 1 hr” value (conscious male ICR mice) was 30.7% and the Ki [1] was 1590 nM. The “μ/κ Ratio” value [2] was 2,700 and the Ki [2] was 0.59 nM.

For CC(C)C[C@@H](NC(=O)[C@@H](Cc1ccc(Cl)c(Cl)c1)NC(=O)[C@H](N)Cc1cccs1)C(=O)N[C@H](CCCNC(=N)N)C(=O)NCc1ccncc1 [Peptide 60, H-D-Ala(2Thi)-D-3,4Cpa-D-Leu-D-Arg-NH(4Pic)] (H-[d2Thi][dPhe(3,4-Cl2)][dL][dR]-{NH(4-picolyl)}), the WT-ED50 (conscious male ICR mice) was 0.083 mg/kg, the “% Antinociception 1 hr” value (conscious male ICR mice) was 83.8% and the “% Antinociception 2 hr” value (conscious male ICR mice) was 35.5%. The Ki [1] was 769 nM, the “μ/κ Ratio” value [2] was 1,900 and the Ki [2] was 0.4 nM.

For CC(C)C[C@@H](NC(=O)[C@@H](Cc1ccccc1)NC(=O)[C@H](N)Cc1ccccc1)C(=O)N[C@H](CCCN)C(=O)N1CCOCC1 [Peptide 57, H-D-Phe-D-Phe-D-Leu-D-Onn-Mor], the WT-ED50 (conscious male ICR mice) was 0.026 mg/kg, the “% Antinociception 1 hr” value (conscious male ICR mice) was 100% and the “% Antinociception 2 hr” value (conscious male ICR mice) was 67.2%. The “% Antinociception 3 hr” value (conscious male ICR mice) was 58.2%, the TF-ED50 (mouse) was 5.6 mg/kg and the “BPI (Brain Penetration Index)” value (mouse) was 215. The Ki [1] was 5260 nM, the “μ/κ Ratio” value [2] was 28,000 and the Ki [2] was 0.19 nM.

With CCCC[C@@H](NC(=O)[C@@H](Cc1ccccc1)NC(=O)[C@H](N)Cc1ccccc1)C(=O)N[C@H](CCCNC(=N)N)C(=O)N1CCC(O)CC1 [Peptide 11, H-D-Phe-D-Phe-D-Nle-D-Arg-4-HyP] (H-[dF][dF][dNle][dR]-X2) the WT-ED50 (conscious male ICR mice) was 0.073 mg/kg and 0.07 mg/kg, the “% Antinociception 1 hr” value (conscious male ICR mice) was 61.8% and the “% Antinociception 2 hr” value (conscious male ICR mice) was 36.9%. The Ki [1] was 3700 nM, the “μ/κ Ratio” value [2] was 62,000 and the Ki [2] was 0.06 nM.

With CC(C)C[C@@H](NC(=O)[C@@H](Cc1ccc2ccccc2c1)NC(=O)[C@H](N)Cc1cccs1)C(=O)N[C@H](CCCNC(=N)N)C(=O)N1CCOCC1 [Peptide 63, H-D-Ala(2Thi)-D-2Nal-D-Leu-D-Arg-Mor] (H-[d2Thi][d2Nal][dL][dR]-Morpholide) the WT-ED50 (conscious male ICR mice) was 0.04 mg/kg, the “% Antinociception 1 hr” value (conscious male ICR mice) was 51.8% and the “% Antinociception 2 hr” value (conscious male ICR mice) was 36.1%. The Ki [1] was 3170 nM, the “μ/κ Ratio” value [2] was 16,000 and the Ki [2] was 0.2 nM.

In the case of CCNC(=O)[C@@H](CCCN)NC(=O)[C@@H](CC(C)C)NC(=O)[C@@H](Cc1ccccc1)NC(=O)[C@H](N)Cc1ccccc1 [Peptide 56, H-D-Phe-D-Phe-D-Leu-D-Orn-NHEt], the WT-ED50 (conscious male ICR mice) is reported as 0.057 mg/kg and 0.06 mg/kg, the “% Antinociception 1 hr” value (conscious male ICR mice) is reported as 76.3% and the “% Antinociception 2 hr” value (conscious male ICR mice) is reported as 60.2%. For the same compound, the Ki [1] was 4150 nM, the “μ/κ Ratio” value [2] was 13,000 and the Ki [2] was 0.31 nM.

In the case of CCCC[C@@H](NC(=O)[C@@H](Cc1ccccc1)NC(=O)[C@H](N)Cc1ccccc1)C(=O)N[C@H](CCCNC(=N)N)C(=O)NC1CC1 [Peptide 5, H-D-Phe-D-Phe-D-Nle-D-Arg-NH(Cyp)] (H-[dF][dF][dNle][dR]-NHcPr), the WT-ED50 (conscious male ICR mice) is reported as 0.04 mg/kg, the “% Antinociception 1 hr” value (conscious male ICR mice) is reported as 66% and the “% Antinociception 2 hr” value (conscious male ICR mice) is reported as 34.5%. The TF-ED50 (mouse) was 4.4 mg/kg, the “BPI (Brain Penetration Index)” value (mouse) was 110 and the Ki [1] was 3520 nM. For the same compound, the “μ/κ Ratio” value [2] was 20,000 and the Ki [2] was 0.18 nM.

From patent US5965701A, “Kappa receptor opioid peptides” (priority 1997, dated 1999)
